Consider 18 molecules from patent publication US12637468B2, “Substituted [1,2,4]triazolo[4,3-b]pyridazines as GABAA receptor modulators” (SHANGHAI SIMR BIOTECHNOLOGY CO., LTD., priority 2019, dated 2026).

Series [1] can be described thus: Thermodynamic solubility in simulated intestinal fluid (TS in FaSSIF). The series is classed as physicochemical. The conditions noted are these: thermodynamic from solid, 37° C. As to the method: Simulated intestinal fluid FaSSIF: 54.76 mg of FaSSIF-V2 (Biorelevant, batch. V2FAS-0619-A, lot. V2FAS01) was weighed and added to 15 mL of a buffer solution. After dissolving, the solution was supplemented to 30 mL, and put at room temperature for 1 hour before use.
Waters e2695 HPLC high performance liquid chromatography, Mettler XSE105 analytical balance.
Firstly, a 10 mM stock solution was prepared with DMSO, and was diluted with a diluent (ACN: PB buffer 50:50) into 1 μM-200 μM as a standard solution.
Thermodynamic solubility in intestinal fluid (TS in FaSSIF) was simulated. About 0.3 mg of each sample was weighed and added to 1.5 mL of FaSSIF solution, with two parts in parallel, shaken at 1000 rpm at 37° C. for 4 hours, filtered. 1 mL of an initial filtrate was discarded, and 400 μL of the subsequent filtrate was taken. The filtrate was detected by high performance liquid chromatograph (UV).

Another series addresses T1, α5-GABAA receptor (Homo sapiens, UniProt P18507+P31644).
T1 construct: expressed in transfected cells; host or cells: HEK293, monoclonal stably transfected line
Description: Cell-level screening: whole cell patch clamp, inverse agonist efficacy on α5-GABAA receptor expressed in HEK293. The format is cell-based. Conditions: drug 100 nM, GABA 0.05 μM, HEK293 expressing α5, β3 and γ2 subunits, clamped at −60 mV; read-out: Compound inverse agonist efficacy %. In a few lines:
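Whole-cell patch clamp at −60 mV on HEK293 stably expressing α5β3γ2, pH 7.4 extracellular/CsCl internal solutions. Current evoked by 0.05 μM GABA, then compound in GABA solution; screening at 100 nM, dose-response 0.3–300 nM. Inverse agonist efficacy as % change of GABA current.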
A general note: The patch-clamp technique gives a direct electrical read-out from membranes.

Values after ≈ are worked out from the molar mass of the structure shown.

T1 sequence (P31644 32-462): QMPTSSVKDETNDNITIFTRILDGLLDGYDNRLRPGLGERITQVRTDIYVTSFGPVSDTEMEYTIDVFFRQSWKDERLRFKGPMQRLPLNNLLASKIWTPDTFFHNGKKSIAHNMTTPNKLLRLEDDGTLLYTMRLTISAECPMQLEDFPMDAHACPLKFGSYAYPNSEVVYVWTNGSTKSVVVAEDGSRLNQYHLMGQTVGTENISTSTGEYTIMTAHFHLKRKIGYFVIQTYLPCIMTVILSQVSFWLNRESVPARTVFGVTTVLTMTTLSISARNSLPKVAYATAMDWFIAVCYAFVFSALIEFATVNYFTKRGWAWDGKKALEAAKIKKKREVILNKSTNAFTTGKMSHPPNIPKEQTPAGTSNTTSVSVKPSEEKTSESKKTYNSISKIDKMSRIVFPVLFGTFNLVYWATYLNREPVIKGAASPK
T1 sequence (P28472 26-473 partner): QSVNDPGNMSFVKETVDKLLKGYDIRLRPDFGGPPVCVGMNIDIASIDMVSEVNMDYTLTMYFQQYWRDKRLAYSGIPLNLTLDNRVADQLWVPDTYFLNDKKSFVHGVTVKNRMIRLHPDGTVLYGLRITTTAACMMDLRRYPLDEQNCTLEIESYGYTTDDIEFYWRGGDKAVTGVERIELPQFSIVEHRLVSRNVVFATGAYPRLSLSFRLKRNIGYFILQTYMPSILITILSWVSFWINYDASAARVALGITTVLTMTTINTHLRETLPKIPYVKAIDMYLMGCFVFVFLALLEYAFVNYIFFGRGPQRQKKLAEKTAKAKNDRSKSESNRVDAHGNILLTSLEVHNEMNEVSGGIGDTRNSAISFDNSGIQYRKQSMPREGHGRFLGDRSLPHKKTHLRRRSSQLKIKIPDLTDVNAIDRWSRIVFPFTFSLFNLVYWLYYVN
T1 sequence (P18507 40-467 isoform P18507-1 limits assumed): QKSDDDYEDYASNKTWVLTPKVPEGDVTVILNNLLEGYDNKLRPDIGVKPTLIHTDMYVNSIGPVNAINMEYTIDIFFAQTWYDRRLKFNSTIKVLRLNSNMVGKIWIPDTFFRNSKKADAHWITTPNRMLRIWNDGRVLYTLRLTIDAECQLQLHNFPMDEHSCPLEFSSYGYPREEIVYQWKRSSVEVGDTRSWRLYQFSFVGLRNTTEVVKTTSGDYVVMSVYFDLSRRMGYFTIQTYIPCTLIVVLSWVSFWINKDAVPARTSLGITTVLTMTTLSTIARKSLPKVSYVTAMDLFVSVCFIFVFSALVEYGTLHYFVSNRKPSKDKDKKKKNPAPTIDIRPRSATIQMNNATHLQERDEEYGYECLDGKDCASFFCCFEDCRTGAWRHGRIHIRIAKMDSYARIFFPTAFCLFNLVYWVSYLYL

`COCCN1Cc2ccc(COc3nn4c(-c5cc(C)on5)nnc4cc3OC)nc2C1` [Embodiment 99]: the solubility (thermodynamic) (as a rule, solubility found after equilibrating the solid with the medium) at 4 h in series [1] is 222 µg/mL (≈ 508 µM). Besides, at α5-GABAA receptor, the inhibition at 0.1 µM was 33.7%.
On the same counts, the results for `CCN1Cc2ccc(COc3nn4c(-c5cc(C)on5)nnc4cc3OC)nc2C1=O` [Embodiment 100] are 70 µg/mL (≈ 166 µM) and 35.3%.
On the same counts, the results for `COc1cc2nnc(-c3cc(C)on3)n2nc1OCc1ccc2c(n1)CN(C(C)C)C2` [Embodiment 102] are 30.8 µg/mL (≈ 73.1 µM) and 47.3%.
The matching figures for `COc1cc2nnc(-c3cc(C)on3)n2nc1OCc1cccc(C2CCCNC2)n1` (stereo not drawn) [Embodiment 103]: 322 µg/mL (≈ 764 µM) and 43.9%.
On to `COCCCN1CCc2nc(COc3nn4c(-c5cc(C)on5)nnc4cc3OC)ccc2C1=O` [Embodiment 107], for which the solubility (thermodynamic) at 4 h in series [1] is 212 µg/mL (≈ 443 µM). In addition, the inhibition at 0.1 µM at α5-GABAA receptor was 39.3%.
Molecule `CCN1CCc2nc(COc3nn4c(-c5cc(C)on5)nnc4cc3OC)ccc2C1=O` [Embodiment 109] displayed a thermodynamic solubility at 4 h in series [1] of 54 µg/mL (≈ 124 µM). For the same molecule, the inhibition at 0.1 µM at α5-GABAA receptor was 47.3%.
`COCCN1CCc2nc(COc3nn4c(-c5cc(C)on5)nnc4cc3OC)ccc2C1=O` [Embodiment 110] showed a thermodynamic solubility at 4 h in series [1] of 46.6 µg/mL (≈ 100 µM). Also, the inhibition at 0.1 µM at α5-GABAA receptor amounted to 58.6%.
As to `COCCCC(=O)N1CCc2nc(COc3nn4c(-c5cc(C)on5)nnc4cc3OC)ccc2C1` [Embodiment 112], the thermodynamic solubility at 4 h in series [1] is 318 µg/mL (≈ 644 µM). Moreover, the inhibition at 0.1 µM at α5-GABAA receptor came to 52.4%.
As for `COc1cc2nnc(-c3cc(C)on3)n2nc1OCc1ccc2c(n1)CCN(CCS(C)(=O)=O)C2` [Embodiment 113, 3-(7-Methoxy-6-((6-(2-(methylsulfonyl)ethyl)-5,6,7,8-tetrahydro-1,6-naphthalen-2-yl)methoxy)-[1,2,4]triazolo[4,3-b]pyridazin-3-yl)-5-methylisoxazole], in series [1], the thermodynamic solubility at 4 h is 191 µg/mL (≈ 383 µM). Further, the inhibition at 0.1 µM at α5-GABAA receptor is 36.7%.
In turn, `COc1cc2nnc(-c3cc(C)on3)n2nc1OCc1ccc2c(n1)CCN(C1(CC#N)COC1)C2` [Embodiment 114, 2-(3-(2-(((7-Methoxy-3-(5-methylisoxazol-3-yl)-[1,2,4]triazolo[4,3-b]pyridazin-6-yl)oxy)methyl)-7,8-dihydro-1,6-naphthyridin-6(5H)-yl)oxetan-3-yl)acetonitrile] displayed a solubility (thermodynamic) at 4 h in series [1] of 139 µg/mL (≈ 284 µM). Moreover, on α5-GABAA receptor, the inhibition at 0.1 µM worked out at 36%.
On the same counts, the results for `COc1cc2nnc(-c3cc(C)on3)n2nc1OCc1ccc2c(n1)CCN(C(C)=O)C2` [Embodiment 115] are 137 µg/mL (≈ 315 µM) and 32.9%.
The matching figures for `COc1cc2nnc(-c3cc(C)on3)n2nc1OCc1cccc(C2CCCN(C3COC3)C2)n1` (stereo not drawn) [Embodiment 122]: 48.4 µg/mL (≈ 101 µM) and 31.9%.
The matching figures for `COc1cc2nnc(-c3cc(C)on3)n2nc1OCc1ccc(C2(F)CN(C)C2)cn1` [Embodiment 124]: 365 µg/mL (≈ 859 µM) and 43.9%.
In series [1], `COc1cc2nnc(-c3cc(C)on3)n2nc1OCc1cccc(C2CCNCC2)n1` [Embodiment 126] had a solubility (thermodynamic) at 4 h of 203 µg/mL (≈ 481 µM). In addition, on α5-GABAA receptor, the inhibition at 0.1 µM turned out to be 38.3%.
The matching figures for `CCN1CC(F)(c2ccc(COc3nn4c(-c5cc(C)on5)nnc4cc3OC)nc2)C1` [Embodiment 127]: 223 µg/mL (≈ 508 µM) and 41.8%.
On the same counts, the results for `COCCn1ccc2nc(COc3nn4c(-c5noc(C)n5)nnc4cc3OC)ccc2c1=O` [Embodiment 130] are 30.9 µg/mL (≈ 66.5 µM) and 39.9%.
In turn, `COc1cc2nnc(-c3cc(C)on3)n2nc1OCc1cccc2nccn12` [Embodiment 135] displayed a thermodynamic solubility at 4 h in series [1] of 35.4 µg/mL (≈ 93.8 µM). Moreover, the inhibition at 0.1 µM on α5-GABAA receptor is 39.5%.
The matching figures for `COc1cc2nnc(-c3cc(C)on3)n2nc1OCc1ccc2c(n1)CCN(C1COC1)C2=O` [Embodiment 141]: 63.9 µg/mL (≈ 138 µM) and 40.6%.
